From EP4790049A1, “BIPHENYL TETRAHYDROPYRROLE COMPOUND, PREPARATION METHOD THEREFOR AND USE THEREOF” (Hainan Yinrui Bio-Pharm Co., Ltd., priority 2023, dated 2025)
Where a name gives a salt, the structure may show the parent alone.

What was measured:
Human recombinant MAO-B = target: T1, Human recombinant MAO-B (Homo sapiens, UniProt P27338); assay: Human recombinant MAO-B inhibitory activity assay (Promega MAO-Glo); assay type: biochemical; details: human recombinant enzyme expressed in Sf 9 cells; substrate benzylamine 40 µM; 15 min pre-incubation, 60 min reaction, room temperature; 10 concentrations, duplicate wells
T1 construct: Full-length human recombinant MAO-A and MAO-B proteins were both expressed in Baculovirus infected Sf 9 cells; FLAG (N); host or cells: Baculovirus-infected Sf9 insect cells
T1 sequence (P27338 1-520): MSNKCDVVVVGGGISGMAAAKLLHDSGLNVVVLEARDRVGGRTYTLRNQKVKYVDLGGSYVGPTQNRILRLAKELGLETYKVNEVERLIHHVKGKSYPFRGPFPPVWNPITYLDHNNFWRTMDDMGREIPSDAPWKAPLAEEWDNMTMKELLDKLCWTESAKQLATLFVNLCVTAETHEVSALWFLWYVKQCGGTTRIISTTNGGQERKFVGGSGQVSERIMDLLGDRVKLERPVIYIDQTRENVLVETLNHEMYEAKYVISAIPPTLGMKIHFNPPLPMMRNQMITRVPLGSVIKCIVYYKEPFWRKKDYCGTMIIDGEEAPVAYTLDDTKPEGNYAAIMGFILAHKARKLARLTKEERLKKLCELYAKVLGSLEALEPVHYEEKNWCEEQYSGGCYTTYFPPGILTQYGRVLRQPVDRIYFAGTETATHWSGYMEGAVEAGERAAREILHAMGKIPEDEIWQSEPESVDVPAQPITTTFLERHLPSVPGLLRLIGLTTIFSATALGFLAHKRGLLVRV
Protocol: (§1) Full-length human recombinant MAO-A and MAO-B proteins were both expressed in Baculovirus infected Sf 9 cells, containing an N-terminal FLAG tag, with a molecular weight of 59.8 kDa. […] A 40 µM substrate was incubated with the MAO protein at room temperature for 1 hour. The product generated by the oxidative deamination reaction between the MAO and the substrate was incubated with a fluorescent luminescent agent for 0.5 hours, and then the activity of the MAO was detected using the Promega MAO-Glo TM detection method.
(§2) Human recombinant monoamine oxidase A/B expressed in Sf 9 cells was used. During the experiment, the recombinant monoamine oxidase A/B was first dissolved in a HEPES buffer (0.8% NaCl, 0.037% KCl, 0.0135% Na2HPO4·2H2O, 0.1% Glucan, 0.5% HEPES, pH 7.0). 10 µL of the monoamine oxidase A/B solution was added to a 384-well plate, followed by the addition of the test compound (final DMSO concentration of 1%) in each well for 10 concentration gradients. […] The plate was incubated at room temperature for 15 minutes. 10 µL of a substrate solution (40 µM, with tyramine and benzylamine as substrates for MAO-A and MAO-B, respectively) was added to each well, followed by incubation at room temperature for 60 minutes. Subsequently, 20 µL of luciferin detection reagent was added to each well, mixed thoroughly, and incubated at room temperature for 20 minutes to generate a stable fluorescent signal. The fluorescent signal was read using a fluorescence microplate reader, and the values were expressed as relative light units (RLU). The experiment was designed with duplicate wells, and the average value was used to calculate the enzyme activity inhibition rate using the following formula: Inh% = (Max-Signal) / (Max-Min)∗100 [formula] • where Max is the value detected at the maximum concentration of the sample, Min is the value detected at the minimum concentration of the sample, and Signal is the value detected at the current concentration of the sample. […] Table 1. Activity Data IC50 (nM)

Human recombinant MAO-A = target: T2, Human recombinant MAO-A (Homo sapiens, UniProt P21397); assay: Human recombinant MAO-A inhibitory activity assay (Promega MAO-Glo); assay type: biochemical; details: human recombinant enzyme expressed in Sf 9 cells; substrate tyramine 40 µM; 15 min pre-incubation, 60 min reaction, room temperature; 10 concentrations, duplicate wells
T2 construct: Full-length human recombinant MAO-A and MAO-B proteins were both expressed in Baculovirus infected Sf 9 cells; FLAG (N); host or cells: Baculovirus-infected Sf9 insect cells
T2 sequence (P21397 1-527): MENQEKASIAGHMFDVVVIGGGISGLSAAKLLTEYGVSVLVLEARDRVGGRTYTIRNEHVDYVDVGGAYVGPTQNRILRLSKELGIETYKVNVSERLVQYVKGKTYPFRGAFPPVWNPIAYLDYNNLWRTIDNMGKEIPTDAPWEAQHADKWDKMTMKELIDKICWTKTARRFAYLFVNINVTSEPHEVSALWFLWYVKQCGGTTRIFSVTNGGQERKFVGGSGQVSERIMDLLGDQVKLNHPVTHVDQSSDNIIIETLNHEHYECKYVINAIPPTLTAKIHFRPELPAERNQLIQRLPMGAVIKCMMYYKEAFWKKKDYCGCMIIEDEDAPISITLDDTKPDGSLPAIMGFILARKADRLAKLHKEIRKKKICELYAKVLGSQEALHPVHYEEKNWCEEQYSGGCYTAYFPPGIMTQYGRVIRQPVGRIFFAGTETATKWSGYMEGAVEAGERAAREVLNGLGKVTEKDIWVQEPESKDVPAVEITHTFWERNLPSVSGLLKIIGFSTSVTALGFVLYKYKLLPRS
Protocol: as §1, §2

SMILES	IC50 (Human recombinant MAO-B) [nM]	IC50 (Human recombinant MAO-A) [nM]
NC(=O)[C@@H]1CC[C@H](c2ccc(-c3ccc(C(F)(F)F)cc3)cc2)N1 [Compound 1, hydrochloride]	83	> 10000
NC(=O)[C@@H]1CC[C@H](c2ccc(-c3ccc(F)cc3)cc2)N1 [Compound 2, hydrochloride]	1510	> 10000
NC(=O)[C@@H]1CC[C@H](c2ccc(-c3ccc(OC(F)(F)F)cc3)cc2)N1 [Compound 3, hydrochloride]	199	> 10000
NC(=O)[C@@H]1CC[C@H](c2ccc(-c3cccc(C(F)(F)F)c3)cc2)N1 [Compound 4, hydrochloride]	477	> 10000
NC(=O)[C@@H]1CC[C@H](c2ccc(-c3cccc(F)c3)cc2)N1 [Compound 5, hydrochloride]	3050	> 10000
NC(=O)[C@@H]1CC[C@@H](c2ccc(-c3ccc(C(F)(F)F)cc3)cc2)N1 [Compound 6, hydrochloride]	104	> 10000
NC(=O)[C@H]1CC[C@H](c2ccc(-c3ccc(C(F)(F)F)cc3)cc2)N1 [Compound 7, hydrochloride]	147	> 10000
NC(=O)[C@H]1CC[C@@H](c2ccc(-c3ccc(C(F)(F)F)cc3)cc2)N1 [Compound 8, hydrochloride]	562	9970
NC(=O)[C@@H]1CC[C@H](c2ccc(-c3ccccc3C(F)(F)F)cc2)N1 [Compound 9, hydrochloride]	890	> 10000
NC(=O)[C@@H]1CC[C@H](c2ccc(-c3ccc(Cl)cc3)cc2)N1 [Compound 10, hydrochloride]	564	83300
N#Cc1ccc(-c2ccc([C@H]3CC[C@@H](C(N)=O)N3)cc2)cc1 [Compound 11, hydrochloride]	1340	9360
NC(=O)[C@@H]1CC[C@H](c2ccc(-c3ccc([N+](=O)[O-])cc3)cc2)N1 [Compound 12, hydrochloride]	796	6320
NC(=O)[C@@H]1CC[C@H](c2ccc(-c3ccc(C(=O)O)cc3)cc2)N1 [Compound 13, hydrochloride]	1540	> 10000
NC(=O)c1ccc(-c2ccc([C@H]3CC[C@@H](C(N)=O)N3)cc2)cc1 [Compound 14, hydrochloride]	991	> 10000
COC(=O)c1ccc(-c2ccc([C@H]3CC[C@@H](C(N)=O)N3)cc2)cc1 [Compound 15, hydrochloride]	784	> 10000
NC(=O)[C@@H]1CC[C@H](c2ccc(-c3ccccc3)cc2)N1 [Compound 16, hydrochloride]	7530	> 10000

SMILES	IC50 (Human recombinant MAO-B) [nM]	IC50 (Human recombinant MAO-A) [nM]
Cc1ccc(-c2ccc([C@H]3CC[C@@H](C(N)=O)N3)cc2)cc1 [Compound 17, (2S,5R)-5-[4-(4-methylphenyl)phenyl]-1H-pyrrole-2-carboxamide hydrochloride]	710	6330
COc1ccc(-c2ccc([C@H]3CC[C@@H](C(N)=O)N3)cc2)cc1 [Compound 18, hydrochloride]	3570	9110
Cc1cc(-c2ccc(C(F)(F)F)cc2)ccc1[C@H]1CC[C@@H](C(N)=O)N1 [Compound 19, hydrochloride]	891	> 10000
COc1cc(-c2ccc(C(F)(F)F)cc2)ccc1[C@H]1CC[C@@H](C(N)=O)N1 [Compound 20, hydrochloride]	998	> 10000
N#Cc1cc(-c2ccc(C(F)(F)F)cc2)ccc1[C@H]1CC[C@@H](C(N)=O)N1 [Compound 21, hydrochloride]	1360	> 10000
NC(=O)[C@@H]1CC[C@H](c2cc(F)c(-c3ccc(C(F)(F)F)cc3)c(F)c2)N1 [Compound 22, hydrochloride]	434	> 10000
N#Cc1cc([C@H]2CC[C@@H](C(N)=O)N2)ccc1-c1ccc(C(F)(F)F)cc1 [Compound 23, hydrochloride]	2530	9830
NC(=O)[C@@H]1CC[C@H](c2c(F)cc(-c3ccc(C(F)(F)F)cc3)cc2F)N1 [Compound 24, hydrochloride]	773	> 10000
CC1C[C@H](c2ccc(-c3ccc(C(F)(F)F)cc3)cc2)N[C@@H]1C(N)=O (some centres unmarked) [Compound 25, hydrochloride]	1510	> 10000
CN1[C@@H](c2ccc(-c3ccc(C(F)(F)F)cc3)cc2)CC[C@H]1C(N)=O [Compound 26]	3670	> 10000
CNC(=O)[C@@H]1CC[C@H](c2ccc(-c3ccc(C(F)(F)F)cc3)cc2)N1 [Compound 27, hydrochloride]	7530	> 10000
CN(C)C(=O)[C@@H]1CC[C@H](c2ccc(-c3ccc(C(F)(F)F)cc3)cc2)N1 [Compound 28, hydrochloride]	1000	> 10000
CCN1[C@@H](c2ccc(-c3ccc(C(F)(F)F)cc3)cc2)CC[C@H]1C(N)=O [Compound 30]	562	> 10000
O=C(O)[C@@H]1CC[C@H](c2ccc(-c3ccc(F)cc3)cc2)N1 [Compound 31, hydrochloride]	533	> 10000
COC(=O)[C@@H]1CC[C@H](c2ccc(-c3ccc(F)cc3)cc2)N1 [Compound 32, hydrochloride]	1990	> 10000
